Results published in patent US7267815B2, “Methods and reagents for the enhancement of virus transduction in the bladder epithelium” (priority 2002, dated 2007).

Experiments:
adenovirus (Ad-LacZ) = assay: Study #5: adenovirus stability after incubation with 0.1% SDS or 0.1% DDM (plaque assay); assay type: physicochemical; settings: 0.1% solution, one hour at 25° C. or 37° C.
Method: In this study, adenovirus (Ad-LacZ) preparations (1.0×10^12 vp/ml) were mixed with solutions of SDS or DDM to obtain a mixture of adenovirus and each of these surfactants. […] These samples were incubated at 25° C. or 37° C. for one hour before freezing. They were sent to assay services for plaque assay analysis.

bladder = assay: Histopathology of bladders after chemical agent pretreatment (pathologists report); assay type: in vivo, mouse (BALB/c)
Text: Bladders fixed in whole organ fixative were sectioned and stained with hematoxylin-eosin for histologic examination.

[1] = test system: SD rat bladder epithelium; assay: Adenovirus dose titration with SDS or DDM pretreatment; assay type: in vivo, Sprague Dawley Rat; settings: 0.1% pretreatment
Text: All the animals had >90% in Ad-βgal gene expression in mice bladder. Adenovirus Dose Titration with Different Chemical Agents Pretreatment on SD Rat Bladder Epithelium • Species: Female Sprague Dawley Rat (Taconic Laboratory)—2/group • Study Design: To test the virus infectivity of rat bladder epithelium with different doses of Adenovirus following the pretreatment with SDS or DDM. This study also explored relationship between bladder volume and residual of SDS or DDM for adenovirus infectivity. • Dose/Route:
Rat bladders infected with 4×10^10 vp adenovirus achieved >90% Ad-βgal gene expression levels whereas rat bladders infected with 4×10^9 vp adenovirus had Ad-βgal gene expression levels range from 30% to 50%. […] Efficacy of Dodecyl-β-D-Maltoside as a Pretreatment Agent Prior to Adenovirus Infection of Mice Bladder Urothelium • Species: Female Balb/c Mouse (Taconic Laboratory)—2/group • Study Design: To test DDM from two different suppliers as pretreatment agents to enhance the adenovirus infection of mice bladder urothelium in a large group of animals. • Dose/Route: […]

mice bladder urothelium [2] = assay: DDM from two suppliers as pretreatment agent prior to adenovirus infection; assay type: in vivo, Balb/c Mouse; settings: two different lots of DDM, pretreatment QQ5 minQ, 1×10^10 vp/dose for 15 min
Text: Rat bladders infected with 4×10^10 vp adenovirus achieved >90% Ad-βgal gene expression levels whereas rat bladders infected with 4×10^9 vp adenovirus had Ad-βgal gene expression levels range from 30% to 50%. […] Efficacy of Dodecyl-β-D-Maltoside as a Pretreatment Agent Prior to Adenovirus Infection of Mice Bladder Urothelium • Species: Female Balb/c Mouse (Taconic Laboratory)—2/group • Study Design: To test DDM from two different suppliers as pretreatment agents to enhance the adenovirus infection of mice bladder urothelium in a large group of animals. • Dose/Route:
In each case, >90% Ad-βgal expression was achieved. Therefore, DDM from either manufacturer is a good candidate for a chemical enhancer for adenovirus infection in mice bladder. Efficacy of Dodecyl-β-D-Maltoside as Chemical Enhancer Prior to Adenovirus Infection of SW780+ Luc Orthotopic Bladder Tumor Model in Mice • Species: Female NCR nu/nu Mouse (Taconic Laboratory)-2/group • Study Design: To show DDM pretreatments enhance Ad.Lac Z infectivity in mice bladder urothelium. To further confirm the enhancer effect on orthotopic tumors, two mice bearing orthotopic SW780 bladder tumors were pretreated with or without DDM (QQ5 minQ) followed by 15 min Ad.Lac Z instillation. The Ad.Lac Z gene expression levels were checked in these tumor cells 4 days post Ad.Lac Z infection. • Dose/Route: […]

mice bladder urothelium [3] = assay: Adenovirus formulated with different concentrations of Dodecyl-β-D-Maltoside, infectivity of bladder urothelium; assay type: in vivo, Balb/c Mouse; settings: for gene expression in bladder: 20 min. instillation
Method: • Species: Female Balb/c Mouse (Taconic Laboratory)-2/group • Study Design: To test the effect of formulating Ad-βgal virus with different concentrations of Dodecyl-β-D-Maltoside and the resultant infection of mice bladder urothelium • Dose/Route (Viral Particles #/dose):
An equal volume of 2× DDM and 2× Ad.CMV.LacZ was mixed together immediately before instillation into the bladder. […] But with 45 min. instillation, all animals with 0.05%-0.2% DDM with Ad-βgal virus had 100% gene expression in mice bladder.

CCCCCCCCCCCCO[C@@H]1O[C@H](CO)[C@@H](O[C@H]2O[C@H](CO)[C@@H](O)[C@H](O)[C@H]2O)[C@H](O)[C@H]1O [n-dodecyl β-D-maltoside, n-dodecyl-β-D-maltoside]
effect on adenovirus (in words) (adenovirus (Ad-LacZ)): no adverse effects on adenovirus
pathologists report (bladder; 0.02% pre-treatment for 5 minutes): no significant lesions
pathologists report (bladder; 0.05% pre-treatment for 5 minutes): no significant lesions
pathologists report (bladder; 0.2% pre-treatment for 5 minutes): erosions, focal ulcer, moderate submucosal edema with mucosal compromise
removal of GAG layer of bladder epithelium [1]: effective to remove GAG layer of bladder epithelium
Ad-βgal expression (mice bladder urothelium [2]): > 90%
gene expression in bladder (mice bladder urothelium [3]; 0.05% DDM formulated with Ad-βgal virus): about 40%
gene expression in mice bladder (mice bladder urothelium [3]; 0.05%-0.2% DDM with Ad-βgal virus, 45 min. instillation): 100%
gene expression in bladder (mice bladder urothelium [3]; 0.1% DDM formulated with Ad-βgal virus): about 80%
gene transduction (in words) (mice bladder urothelium [3]; 10 min. virus instillation after DDM pretreatment): gene transduction could be achieved
transduction rate (in words) (mice bladder urothelium [3]; DDM formulated with virus, 10 min. instillation): did not achieve an acceptable transduction rate
